Patent US6660283B2, “Use of cinnamic acid, or of at least one of its derivatives in a cosmetic composition” (Societe L'Oreal S.A., priority 1997, dated 2003)

Tested on: reconstructed human epidermis
Test: Incorporation of 14C acetate into total lipids of reconstructed human epidermis (Skinethic)
Assay type: cell-based
Settings: for percentage of stimulation (incorporation of 14C acetate, lipid synthesis): relative to untreated cells = 100
Protocol: The study is carried out by measuring the incorporation of carbon-14-labelled acetate in models of reconstructed human epidermis sold by the company Skinethic, in which the composition of total lipids is close to that of normal human epidermis.
The reconstructed human epidermis cultures are prepared according to the supplier's recommendations.
Cinnamic acid, at concentrations of 10^−5, 10^−6 and 10^−7 M, is placed in contact for 72 hours with reconstructed human epidermes after they have been cultured for 14 days under the conditions recommended by the supplier. The labelling with ^14C acetate (sodium [2-^14C]-acetate sold by Amersham, 59 mCi/mmol) is carried out 24 hours after placing the test product in contact with the culture, i.e. during the final 48 hours of culturing, at a rate of 0.5 μCi of ^14C acetate per culture.
At the end of culturing, after washing the epidermes with phosphate buffer (PBS), the epidermides are dissociated and the cells are lysed with 0.5M perchloric acid on ice. The lysates are then extracted with a methanol/chloroform mixture (2:1), centrifuged and the pellets obtained are extracted again under the same conditions as before. The lipids are separated out by addition of PBS and chloroform (Blight-Byer technique). The organic phase containing the lipids is taken off and the radioactive incorporated in this phase is determined by liquid scintillation. The organic phase is then dried under a stream of nitrogen. Thin layer plate chromatography on Merck K60 plates is carried out using, as eluent, a chloroform/methanol/water mixture (50/18/2.6) to separate the phospholipids, or a hexane/ether/acetic acid mixture (15/5.6/0.19) to separate the neutral lipids.
The plates are then autoradiographed for 24 hours and the chromatograms are analysed by densitometry using the One-D-Scan software from the company Scanalytics.
The results are evaluated relative to a control consisting of cells which have not been treated with cinnamic acid.
A positive control (10^−4 M trifluoperazine), which is known to stimulate lipid synthesis, and a negative control (10^−6 M retinoic acid), which is known to inhibit lipid synthesis, are introduced into the test as reference.

## O=C(O)C=Cc1ccccc1 [cinnamic acid]
10^−5 M, 72 hours contact
  percentage of stimulation (incorporation of 14C acetate, lipid synthesis): 113%
10^−6 M, 72 hours contact
  percentage of stimulation (incorporation of 14C acetate, lipid synthesis): 109%
10^−7 M, 72 hours contact
  percentage of stimulation (incorporation of 14C acetate, lipid synthesis): 124%
Reconstructed human epidermis, 10^−5 to 10^−7 M
  effect on incorporation of 14C acetate (lipid synthesis), in words: significantly stimulates

## CC1=C(/C=C/C(C)=C/C=C/C(C)=C/C(=O)O)C(C)(C)CCC1 [retinoic acid, reference compound]
10^−6 M, 72 hours contact
  percentage of stimulation (incorporation of 14C acetate, lipid synthesis): 82%

## CN1CCN(CCCN2c3ccccc3Sc3ccc(C(F)(F)F)cc32)CC1 [trifluoroperazine, trifluoperazine, reference compound]
10^−4 M
  percentage of stimulation (incorporation of 14C acetate, lipid synthesis): 122%
